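Briefly, cells in 96-well plates were exposed to five compound concentrations for 48 h, and endpoints were estimated by linear interpolation. TGI marks complete inhibition of growth.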
Legend:
Assay in all cases: growth of human tumour cells (NCI), 48 h
OVCAR-3 ovarian = system: OVCAR-3 ovarian
SK-MEL-28 melanoma = system: SK-MEL-28 melanoma
NCI-H522 lung = system: NCI-H522 lung
EKVX NSCLC = system: EKVX NSCLC
UACC-257 melanoma = system: UACC-257 melanoma
KM12 colon = system: KM12 colon
COLO 205 colon = system: COLO 205 colon
SF-295 CNS = system: SF-295 CNS
CAKI-1 renal = system: CAKI-1 renal
MDA-MB-435 = system: MDA-MB-435
HS 578T breast = system: HS 578T breast
SN12C renal = system: SN12C renal
HOP-62 NSCLC = system: HOP-62 NSCLC
A549 NSCLC = system: A549 NSCLC
MDA-MB-231 breast = system: MDA-MB-231 breast
UACC-62 melanoma = system: UACC-62 melanoma
HT29 colon = system: HT29 colon
SNB-19 CNS = system: SNB-19 CNS
K-562 leukemia = system: K-562 leukemia
OVCAR-4 ovarian = system: OVCAR-4 ovarian
TK-10 renal = system: TK-10 renal
U251 CNS = system: U251 CNS
NCI-H460 lung = system: NCI-H460 lung
SW-620 colon = system: SW-620 colon
OVCAR-8 ovarian = system: OVCAR-8 ovarian
LOX IMVI melanoma = system: LOX IMVI melanoma
HL-60(TB) leukemia = system: HL-60(TB) leukemia
HCT-15 colon = system: HCT-15 colon
RPMI-8226 leukemia = system: RPMI-8226 leukemia
HOP-92 NSCLC = system: HOP-92 NSCLC
T-47D breast = system: T-47D breast
SK-MEL-5 melanoma = system: SK-MEL-5 melanoma
HCT-116 colon = system: HCT-116 colon
BT-549 breast = system: BT-549 breast
SK-MEL-2 melanoma = system: SK-MEL-2 melanoma
PC-3 prostate = system: PC-3 prostate
NCI-H23 lung = system: NCI-H23 lung
IGROV1 ovarian = system: IGROV1 ovarian
OVCAR-5 ovarian = system: OVCAR-5 ovarian
MALME-3M melanoma = system: MALME-3M melanoma
NCI/ADR-RES ovarian = system: NCI/ADR-RES ovarian
M14 melanoma = system: M14 melanoma
DU-145 prostate = system: DU-145 prostate
SK-OV-3 ovarian = system: SK-OV-3 ovarian
ACHN renal = system: ACHN renal
MOLT-4 leukemia = system: MOLT-4 leukemia
UO-31 renal = system: UO-31 renal
786-0 renal = system: 786-0 renal
CCRF-CEM leukemia = system: CCRF-CEM leukemia
NCI-H226 lung = system: NCI-H226 lung
MDA-N = system: MDA-N
MCF7 breast = system: MCF7 breast
RXF 393 renal = system: RXF 393 renal
SF-268 CNS = system: SF-268 CNS
HCC-2998 colon = system: HCC-2998 colon
SNB-75 CNS = system: SNB-75 CNS
SF-539 CNS = system: SF-539 CNS
SR leukemia = system: SR leukemia

COc1ccc(/C=C2\CN(C)Cc3c2[nH]c(=O)c(C#N)c3-c2ccc(OC)cc2)cc1
TGI (OVCAR-3 ovarian): > 100 µM | TGI (SK-MEL-28 melanoma): > 100 µM | TGI (NCI-H522 lung): > 100 µM | TGI (EKVX NSCLC): > 100 µM | TGI (UACC-257 melanoma): > 100 µM | TGI (KM12 colon): > 100 µM | TGI (COLO 205 colon): > 100 µM | TGI (SF-295 CNS): > 100 µM | TGI (CAKI-1 renal): > 100 µM | TGI (MDA-MB-435): > 100 µM | TGI (HS 578T breast): > 100 µM | TGI (SN12C renal): > 100 µM | TGI (HOP-62 NSCLC): > 100 µM | TGI (A549 NSCLC): > 100 µM | TGI (MDA-MB-231 breast): > 100 µM | TGI (UACC-62 melanoma): > 100 µM | TGI (HT29 colon): > 100 µM | TGI (SNB-19 CNS): > 100 µM | TGI (K-562 leukemia): > 100 µM | TGI (OVCAR-4 ovarian): > 100 µM | TGI (TK-10 renal): > 100 µM | TGI (U251 CNS): > 100 µM | TGI (NCI-H460 lung): > 100 µM | TGI (SW-620 colon): > 100 µM | TGI (OVCAR-8 ovarian): > 100 µM | TGI (LOX IMVI melanoma): > 100 µM | TGI (HL-60(TB) leukemia): 31.8 µM | TGI (HCT-15 colon): > 100 µM | TGI (RPMI-8226 leukemia): 71.6 µM | TGI (HOP-92 NSCLC): > 100 µM | TGI (T-47D breast): > 100 µM | TGI (SK-MEL-5 melanoma): > 100 µM | TGI (HCT-116 colon): > 100 µM | TGI (BT-549 breast): > 100 µM | TGI (SK-MEL-2 melanoma): > 100 µM | TGI (PC-3 prostate): > 100 µM | TGI (NCI-H23 lung): > 100 µM | TGI (IGROV1 ovarian): > 100 µM | TGI (OVCAR-5 ovarian): > 100 µM | TGI (MALME-3M melanoma): > 100 µM | TGI (NCI/ADR-RES ovarian): > 100 µM | TGI (M14 melanoma): > 100 µM | TGI (DU-145 prostate): > 100 µM | TGI (SK-OV-3 ovarian): > 100 µM | TGI (ACHN renal): > 100 µM | TGI (MOLT-4 leukemia): > 100 µM | TGI (UO-31 renal): > 100 µM | TGI (786-0 renal): 51.1 µM | TGI (CCRF-CEM leukemia): > 100 µM | TGI (NCI-H226 lung): > 100 µM | TGI (MDA-N): > 100 µM | TGI (MCF7 breast): > 100 µM | TGI (RXF 393 renal): 63.3 µM | TGI (SF-268 CNS): > 100 µM

O=C(NN1C(=O)C=CC1=O)c1ccccc1Nc1ccccc1C(=O)NN1C(=O)C=CC1=O
TGI (OVCAR-3 ovarian): > 100 µM | TGI (SK-MEL-28 melanoma): > 100 µM | TGI (NCI-H522 lung): > 100 µM | TGI (EKVX NSCLC): > 100 µM | TGI (UACC-257 melanoma): > 100 µM | TGI (KM12 colon): > 100 µM | TGI (COLO 205 colon): > 100 µM | TGI (SF-295 CNS): > 100 µM | TGI (CAKI-1 renal): > 100 µM | TGI (MDA-MB-435): > 100 µM | TGI (HCC-2998 colon): > 100 µM | TGI (SN12C renal): > 100 µM | TGI (HOP-62 NSCLC): > 100 µM | TGI (MDA-MB-231 breast): > 100 µM | TGI (UACC-62 melanoma): > 100 µM | TGI (HT29 colon): > 100 µM | TGI (SNB-75 CNS): > 100 µM | TGI (SNB-19 CNS): > 100 µM | TGI (K-562 leukemia): > 100 µM | TGI (OVCAR-4 ovarian): > 100 µM | TGI (TK-10 renal): > 100 µM | TGI (U251 CNS): > 100 µM | TGI (NCI-H460 lung): > 100 µM | TGI (SW-620 colon): > 100 µM | TGI (OVCAR-8 ovarian): > 100 µM | TGI (LOX IMVI melanoma): > 100 µM | TGI (HL-60(TB) leukemia): > 100 µM | TGI (HCT-15 colon): > 100 µM | TGI (RPMI-8226 leukemia): > 100 µM | TGI (HOP-92 NSCLC): > 100 µM | TGI (T-47D breast): > 100 µM | TGI (SK-MEL-5 melanoma): > 100 µM | TGI (HCT-116 colon): > 100 µM | TGI (BT-549 breast): > 100 µM | TGI (SK-MEL-2 melanoma): > 100 µM | TGI (PC-3 prostate): > 100 µM | TGI (NCI-H23 lung): > 100 µM | TGI (IGROV1 ovarian): > 100 µM | TGI (OVCAR-5 ovarian): > 100 µM | TGI (MALME-3M melanoma): > 100 µM | TGI (NCI/ADR-RES ovarian): > 100 µM | TGI (SF-539 CNS): > 100 µM | TGI (SR leukemia): > 100 µM | TGI (M14 melanoma): > 100 µM | TGI (DU-145 prostate): > 100 µM | TGI (ACHN renal): > 100 µM | TGI (MOLT-4 leukemia): > 100 µM | TGI (UO-31 renal): > 100 µM | TGI (786-0 renal): > 100 µM | TGI (CCRF-CEM leukemia): > 100 µM | TGI (NCI-H226 lung): > 100 µM | TGI (MDA-N): > 100 µM | TGI (MCF7 breast): > 100 µM | TGI (RXF 393 renal): > 100 µM | TGI (SF-268 CNS): > 100 µM

Source: PubChem BioAssay (NCI)
